Assay results as given in paper PMC8150775, “Repositioning Azelnidipine as a Dual Inhibitor Targeting CD47/SIRPα and TIGIT/PVR Pathways for Cancer Immuno-Therapy” (Biomolecules, 2021).
pIC50: −log10 of the molar value.

Key:
various tumor cells = test system: various tumor cells; parameters: method as in earlier work; details: cited from earlier work
[1] = test system: peripheral blood mononuclear cells; parameters: method as in PMID 29398679, PMID 20606305; details: cited from earlier work
CD47 = assay: Flow cytometry of CD47 expression on CT26 cells in vitro; type: cell-based, mouse; details: 20 μM, 24 h
Experimental: Cells in good growth condition were harvested and used to detect the expression of CD47 and PVR. Antibodies anti-human CD47 APC, anti-human PVR PE, anti-mouse-CD47 APC, anti-mouse-PVR APC, and matched isotype controls were purchased from eBioscience, San Diego, CA, USA. The effects of azelnidipine on the expression of CD47 and PVR was determined by incubating CT26 cells with 20 μM of azelnidipine for 24 h, or directly analyzing the tumor cells from tumor tissues of CT26-bearing mice treated with or without azelnidipine.
Figure S3. The effects of Azelnidipine on the expression of CD47 and PVR on CT26 tumor cells. (A and B) CT26 cells were incubated with 20 μM Azelnidipine or vehicle control for 24h, and analyzed the expression of CD47 (A) and PVR (B). The gray shaded histogram represents the isotype, the red line represents the cells treated with vehicle control, and the blue line represents the cells treated with Azelnidipine. (C and D) Tumor cells (CD45-) derived from the tumor tissues of CT26 tumor-bearing mice treated with normal saline (NS) or 5 mg/kg Azelnidipine for twelve days, were analyzed for the expression of CD47 (C) and PVR (D). n.s. means not […]
(§1) (1 picture or pasted object on this page, not shown here)

mouse CD47/SIRPα = target: T1, mouse CD47/SIRPα (Mus musculus, UniProt P97797); assay: Blocking assay, mouse SIRPα protein binding to CHOK1-mCD47 cells; details: concentration gradient; read-out: IC50, blocking mouse CD47/SIRPα (mSirpα binding)
T1 construct: purchased ACRO Biosystem SIA-M5258; host or cells: soluble protein purchased; CD47 on CHOK1-mCD47 cells (lenti-viral transfection)
Experimental: (§2) The abilities of small molecule inhibitors (SMIs) (purchased from TargetMol, Shanghai, China) to block the binding of SIRPα protein to CHOK1-CD47 cells or PVR protein to CHOK1-TIGIT cells were determined by flow cytometry, as previously reported. The SMIs at indicated concentrations were incubated with Fc-tagged SIRPα or PVR protein for 30 min at 4°C, followed by incubating with the indicated cells for another 30 min. Human SIRPα protein (SIA-[…], ACRO Biosystem, Beijing, China), mouse SIRPα protein (SIA-[…], ACRO Biosystem, Beijing, China), human PVR protein (CD5-[…], ACRO Biosystem, Beijing, China), and mouse PVR protein (50259-[…], Sino Biological, Beijing, China) were used. PE-conjugated anti-human IgG antibody was used to detect the Fc protein bind to cells. Cells incubated with the Fc proteins and anti-human IgG antibody without the SMIs serve as the positive control. The mean fluorescent intensity (MFI) of each sample was detected and recorded by a flow cytometry. The blocking efficacy of the SMIs was calculated as the equation: (MFI of the positive control-MFI of the SMI)/MFI of the positive control × 100%.

CT26 tumors = assay: CD8+ T cell depletion CT26 tumor model; type: in vivo, BALB/c mice
Experimental: To establish the CD8^+ T cell depletion model, BALB/c mice were injected with 200 μg of CD8-depleting antibody (clone: YTS169.4) or matched Rat IgG isotype control (Sigma-Aldrich) the day before tumor inoculation and as well as weekly thereafter, resulting in a total of 3 injections per mouse. Depletion efficacy of CD8^+ T cells was verified by a flow cytometry with the blood sample of mice treated with indicated antibodies for 7 days.
Figure S2. The antitumor effects of Azelnidipine in CD8+ T cell depleted CT26 tumor model.
(A) CT26 tumor-bearing mice were i.p. administrated with 5 mg/kg of Azelnidipine daily as in the schematic diagram. (B) Blood samples of the mice treated with 200 μg anti-CD8 (YTS 169.4) or Rat IgG control for seven days were used to analyze the depletion efficacy by flow cytometry.
(C) Tumor growth curve of CT26 tumor-bearing mice treated with normal saline or Azelnidipine alone (n = 5 or 6). (D) Representative flow cytometry plots and summary data of the MDSCs in the tumor tissues of the Rat IgG treated groups (NS and Azelnidipine). (E) Representative flow cytometry histograms and summary data of the expression of SIRPα on M-MDSCs in the tumor tissues of the Rat IgG treated groups (NS and Azelnidipine). *, P<0.05.
as §1

mouse TIGIT/PVR = target: T2, mouse TIGIT/PVR (Mus musculus, UniProt F6V4I7); assay: Blocking assay, mouse PVR protein binding to CHOK1-mTIGIT cells; details: concentration gradient; read-out: IC50, blocking mouse TIGIT/PVR (mPVR binding)
T2 construct: purchased Sino Biological 50259-M03H; host or cells: soluble protein purchased; TIGIT on CHOK1-mTIGIT cells (lenti-viral transfection)
Experimental: as §2

tumor = test system: tumor; parameters: method as in earlier work; details: cited from earlier work
human PD-1/PD-L1 = target: T3, human PD-1/PD-L1 (Homo sapiens, UniProt Q15116); assay: Blocking assay, PD-1-Fc protein binding to CHOK1-hPD-L1 cells; details: 100 μM
T3 construct: host or cells: CHOK1-hPD-L1 cells
Text: The small molecule inhibitor could not only bind to the target; most importantly, it should interfere with the receptor–ligand interactions. Subsequently, the candidate inhibitors were screened by the blocking assays with the established CD47 and TIGIT over-expressing cell lines. The test was initialed with a preliminary screening of the candidates with a single concentration (Figure 2D). Generally, the SMI blocking efficacy to the CD47/SIRPα interaction was much higher than that of the TIGIT/PVR. […] Therefore, the SMI-F11 and SMI-F17 may exert dual blocking effects in the CD47/SIRPα and TIGIT/PVR pathways. Blocking assays with a concentration gradient of the SMI were further performed to validate the preliminary screening. […] The similar blocking assays with the mouse CD47 and TIGIT over-expressing cells were also performed. […] Considering that most pairs of the immune checkpoints interact with the corresponding ligand in parallel forms, the blocking assays with the PD-1/PD-L1 interaction system was also conducted to test the specificity.
There are three supplemental Figures and one supplemental Table.
Supplemental figure and legend
Figure S1. The blocking efficacy of PD-1/PD-L1 by Azelnidipine. (A) The representative FACS histogram of blocking assay of Azelnidipine (100 μM) with CHOK1-hPD-L1 cells and PD-1-Fc protein (blue histogram). […]

[2] = 5 mg/kg i.p., Rat IgG treated groups

T3 sequence (Q15116 25-167 limits assumed): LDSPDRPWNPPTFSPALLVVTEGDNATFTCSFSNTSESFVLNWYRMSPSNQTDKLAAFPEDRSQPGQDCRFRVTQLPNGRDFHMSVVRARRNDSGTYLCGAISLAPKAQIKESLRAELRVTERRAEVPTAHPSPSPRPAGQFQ
T2 sequence (F6V4I7 29-408): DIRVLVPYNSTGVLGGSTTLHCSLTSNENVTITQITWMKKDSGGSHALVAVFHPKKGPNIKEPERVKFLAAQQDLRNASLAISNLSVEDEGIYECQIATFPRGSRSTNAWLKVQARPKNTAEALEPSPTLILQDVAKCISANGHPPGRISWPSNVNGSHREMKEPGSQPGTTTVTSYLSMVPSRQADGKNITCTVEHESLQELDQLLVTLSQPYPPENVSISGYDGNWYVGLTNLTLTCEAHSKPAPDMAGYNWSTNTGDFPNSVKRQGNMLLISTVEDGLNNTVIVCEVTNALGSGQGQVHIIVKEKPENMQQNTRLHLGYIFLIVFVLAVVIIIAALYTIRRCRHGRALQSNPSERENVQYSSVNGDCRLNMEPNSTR
T1 sequence (P97797 32-373 limits assumed): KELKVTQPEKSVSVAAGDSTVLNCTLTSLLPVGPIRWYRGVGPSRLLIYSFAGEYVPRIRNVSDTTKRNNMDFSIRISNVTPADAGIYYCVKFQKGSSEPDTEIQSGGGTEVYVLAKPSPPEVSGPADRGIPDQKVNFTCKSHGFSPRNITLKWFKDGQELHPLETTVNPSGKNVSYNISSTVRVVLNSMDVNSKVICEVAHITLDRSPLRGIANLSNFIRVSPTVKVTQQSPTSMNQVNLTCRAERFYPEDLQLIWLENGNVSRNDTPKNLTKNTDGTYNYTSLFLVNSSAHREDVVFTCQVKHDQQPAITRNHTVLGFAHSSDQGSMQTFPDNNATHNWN

## CC1=C(C(=O)OC(C)C)C(c2cccc([N+](=O)[O-])c2)C(C(=O)OC2CN(C(c3ccccc3)c3ccccc3)C2)=C(N)N1 (centres unmarked) [Azelnidipine]
Various tumor cells
  growth of various tumor cells in vitro: inhibit the growth of various tumor cells in vitro
[1]
  cytokine secretion of peripheral blood mononuclear cells: inhibit
CD47
  expression of CD47 on CT26 cells: without suppressing
Mouse CD47/SIRPα
  pIC50: ~4.43
CT26 tumors; 5 mg/kg i.p. daily, CD8-depleting antibody
  anti-tumor effect with CD8+ T cells depleted: abrogated
CT26 tumors; 5 mg/kg i.p. daily, Rat IgG isotype control
  CT26 tumor growth, Rat IgG treated groups: significantly inhibit tumor growth
CT26 tumors; [2]
  expression level of SIRPα on MDSCs in CT26 tumor tissues, NS vs azelnidipine: no significant difference
  infiltration of MDSCs in CT26 tumor tissues, NS vs azelnidipine: no significant difference
Mouse TIGIT/PVR
  pIC50: ~4.09
tumor
  tumor growth in vivo: significantly inhibit the tumor growth in vivo
Human PD-1/PD-L1
  blocking of human PD-1/PD-L1 interaction: could not block
